Test: solubility of rod like amorphous particles compared to Form I
Details: qualitative statement, no method or figures given

solubility: enhanced solubility compared to Form I
Structure (SMILES): CC(C)CN(C[C@@H](OP(=O)(O)O)[C@H](Cc1ccccc1)NC(=O)O[C@H]1CCOC1)S(=O)(=O)c1ccc(N)cc1 [rod like amorphous particles, calcium (2R, 3S)-1-(4-amino-N-isobutyl-phenylsulfonamido)-4-phenyl-3-(((S)-tetrahydrofuran-3-yloxy)carbonylamino)butan-2-yl phosphate]

From patent US20110165202A1, “SOLID STATE FORMS OF FOSAMPRENAVIR CALCIUM SALT AND PROCESSES FOR PREPARATION THEREOF” (PLIVA HRVATSKA D.O.O., priority 2010, published 2011)
